Results published in patent US20250332173A1, “COMPOUNDS AND METHODS FOR MODULATING NUCLEIC ACID SPLICING” (REMIX THERAPEUTICS INC., priority 2021, published 2025).
Read-outs that look alike come from different tables or passages of the source.

How the values were obtained:
Format in all cases: cell-based, human
HTT mRNA = assay: RT-qPCR splicing assay, HTT canonical junction (CJ) and alternative junction (AJ) mRNA; settings: Homo sapiens; for AC50: increase in HTT alternative junction (AJ) mRNA, read-out: HTT AJ AC50
Protocol: (§1) The expression of a target mRNA was measured by detecting the formation of an exon-exon junction in the canonical transcript (CJ). A compound mediated exon-inclusion event was detected by observing an increase in formation of a new junction with an alternative exon (AJ). Real-time qPCR assays were used to detect these splicing switches and interrogate the potency of various compounds towards different target genes. A high-throughput real time quantitative PCR (RT-qPCR) assay was developed to measure these two isoforms of the mRNA (CJ and AJ) for exemplary genes, such as HTT, SMN2, and MYB, together with a control housekeeping gene, GAPDH or GUSB or PPIA, used for normalization. Briefly, the A673 or K562 cell line was treated with various compounds described herein (e.g., compounds of Formula (I)). After treatment, the levels of the HTT, MYB, or SMN2 mRNA targets were determined from each sample of cell lysate by cDNA synthesis followed by qPCR.
(§2) • Cells-to-CT 1-step kit: ThermoFisher A25602, Cells-to-CT lysis reagent: ThermoFisher 4391851C, TaqMan™ Fast Virus 1-Step Master Mix: ThermoFisher 4444436 • GAPDH: VIC-PL, ThermoFisher 4326317E (Assay: Hs99999905_m1)—used for K562/suspension cell lines • GUSB: VIC-PL, ThermoFisher 4326320E (Assay: Hs99999908_m1)—used for K562/suspension cell lines • PPIA: VIC-PL, ThermoFisher 4326316E (Assay: Hs99999904_m1)—used for A673/adherent cell lines
(§3) The A673 cell line was cultured in DMEM with 10% FBS. Cells were diluted with full growth media and plated in a 96-well plate (15,000 cells in 100 ul media per well). The plate was incubated at 37° C. with 5% CO2 for 24 hours to allow cells to adhere. An 11-point 3-fold serial dilution of the compounds was made in DMSO then diluted in media in an intermediate plate. Compounds were transferred from the intermediate plate to the cell plate with the top dose at a final concentration of 10 uM in the well. Final DMSO concentration was kept at or below 0.25%. The cell plate was returned to the incubator at 37° C. with 5% CO2 for an additional 24 hours.
(§4) The K562 cell line was cultured in IMDM with 10% FBS. For K562, cells were diluted with full growth media and plated in either a 96-well plate (50,000 cells in 50 uL media per well) or a 384-well plate (8,000-40,000 cells in 45 uL media per well). An 11-point 3-fold serial dilution of the compounds were made in DMSO then diluted in media in an intermediate plate. Compound was transferred from the intermediate plate to the cell plate with the top dose at a final concentration of 10 uM in the well. Final DMSO concentration was kept at or below 0.25%. Final volume was 100 uL for 96-well plate and 50 uL for 384-well plate. The cell plate was then placed in an incubator at 37° C. with 5% CO2 for 24 hours.
(§5) The cells were then gently washed with 50 uL-100 uL cold PBS before proceeding to addition of lysis buffer. 30 uL-50 uL of room temperature lysis buffer with DNAse I (and optionally RNAsin) was added to each well. Cells were shaken/mixed thoroughly at room temperature for 5-10 minutes for lysis to take place and then 3 uL-5 uL of room temperature stop solution was added and wells were shaken/mixed again. After 2-5 minutes, the cell lysate plate was transferred to ice for RT-qPCR reaction setup. The lysates could also be frozen at −80° C. for later use.
(§6) In some cases, a direct lysis buffer was used. An appropriate volume of 3× lysis buffer (10 mM Tris, 150 mM NaCl, 1.5%-2.5% Igepal and 0.1-1 U/uL RNAsin, pH 7.4) was directly added to either K562 or A673 cells in media and mixed by pipetting 3 times. The plates were then incubated at room temperature with shaking/rocking for 20-50 minutes to allow for lysis to take place. After this time, the cell lysate plate was transferred to ice to set up for the RT-qPCR reactions. The lysates could also be frozen at −80° C. for later use.

Target C = assay: RT-qPCR splicing assay panel, Target C canonical junction (CJ) mRNA; settings: Homo sapiens; Table 5 panel; canonical junction qPCR; compound concentration having 50% response in CJ decrease; read-out: Target C IC50 (decrease in CJ mRNA levels)
Protocol: as §1, §3, §4, §5, §6
(§7) To set up 10 uL RT-qPCR reactions, cell lysates were transferred to 384-well qPCR plates containing the master mix according to the table below. The plates were sealed, gently vortexed, and spun down before the run. The volumes were adjusted accordingly in some instances where the reaction was carried in 20 uL. The table below summarizes the components of the RT-qPCR reactions:
(§8) The RT-qPCR reaction was performed using a QuantStudio (ThermoFisher) under the following fast cycling conditions.

MYB mRNA = assay: RT-qPCR splicing assay, MYB canonical junction (CJ) and alternative junction (AJ) mRNA; settings: Homo sapiens; for AC50: increase in MYB alternative junction (AJ) mRNA, read-out: MYB AJ AC50
Protocol: as §1, §2, §3, §4, §5, §6

SMN2 mRNA = assay: RT-qPCR splicing assay, SMN2 canonical junction (CJ) mRNA; settings: Homo sapiens; Table 5 panel; canonical junction qPCR; compound concentration having 50% response in CJ decrease; read-out: SMN2 IC50 (decrease in CJ mRNA levels)
Protocol: as §1, §3, §4, §5, §6, §7, §8

[1] = decrease in HTT canonical junction (CJ) mRNA, RT-qPCR, read-out: HTT CJ IC50
[2] = Table 5 panel, canonical junction qPCR, compound concentration having 50% response in CJ decrease, read-out: HTT IC50 (decrease in CJ mRNA levels)
[3] = Table 5 panel, canonical junction qPCR, compound concentration having 50% response in CJ decrease, read-out: MYB IC50 (decrease in CJ mRNA levels)
[4] = decrease in MYB canonical junction (CJ) mRNA, RT-qPCR, read-out: MYB CJ IC50

SMILES | IC50 (HTT mRNA; [1]) | AC50 (HTT mRNA; RT-qPCR) | IC50 (HTT mRNA; [2]) | IC50 (Target C) | IC50 (MYB mRNA; [3]) | IC50 (MYB mRNA; [4]) | AC50 (MYB mRNA; RT-qPCR) | IC50 (SMN2 mRNA)
Cc1cn2cc(-c3nc4ccc(N5CCNCC5)cc4c(=O)[nH]3)cc(F)c2n1 [Compound 115] | > 10000 nM | > 10000 nM | > 10000 nM | > 10000 nM | 1000 to 10000 nM | 100 to 1000 nM | 1000 to 10000 nM | < 100 nM
Cc1cc(-c2nc3ccc(N(C)C4CCNCC4)cc3c(=O)[nH]2)cc2cn(C)nc12 [Compound 121, 2-(2,7-dimethyl-2H-indazol-5-yl)-6-(methyl(piperidin-4-yl)amino)quinazolin-4(3H)-one] | > 10000 nM | > 10000 nM | 1000 to 10000 nM | > 10000 nM | > 10000 nM | 1000 to 10000 nM | > 10000 nM | 100 to 1000 nM
Cc1cc(-c2ccc3nc(N4CCNCC4)[nH]c(=O)c3c2)cc2cn(C)nc12 [Compound 166] | 1000 to 10000 nM | 1000 to 10000 nM | 1000 to 10000 nM | 1000 to 10000 nM | 1000 to 10000 nM | 1000 to 10000 nM | 1000 to 10000 nM | 1000 to 10000 nM
Cc1cc(-c2ccc3nc(NC4CCN(C)CC4)[nH]c(=O)c3c2)cc2cn(C)nc12 [Compound 167] | > 10000 nM | > 10000 nM | > 10000 nM | > 10000 nM | > 10000 nM | > 10000 nM | > 10000 nM | > 10000 nM
Cc1cn2nc(-c3ccc4nc(N5CCNC6(CC6)C5)[nH]c(=O)c4c3)cc(C)c2n1 [Compound 190] | 100 to 1000 nM | 100 to 1000 nM | 100 to 1000 nM | 100 to 1000 nM | 100 to 1000 nM | 100 to 1000 nM | 100 to 1000 nM | 100 to 1000 nM
Cc1cn2cc(-c3ccc4nc(N5CCNC6(CC6)C5)[nH]c(=O)c4c3)cc(F)c2n1 [Compound 191] | > 10000 nM | > 10000 nM | > 10000 nM | > 10000 nM | > 10000 nM | > 10000 nM | > 10000 nM | > 10000 nM
Cc1cn2nc(-c3ccc4nc(NC5CCNCC5)[nH]c(=O)c4c3)cc(C)c2n1 [Compound 192] | > 10000 nM | > 10000 nM | > 10000 nM | > 10000 nM | > 10000 nM | > 10000 nM | > 10000 nM | > 10000 nM
Cc1cn2cc(-c3ccc4nc(NC5CCNCC5)[nH]c(=O)c4c3)cc(F)c2n1 [Compound 238] | > 10000 nM | > 10000 nM | > 10000 nM | > 10000 nM | > 10000 nM | > 10000 nM | > 10000 nM | > 10000 nM
Cc1cc(-c2nc3ccc(N(C)C4CCN(C)CC4)cc3c(=O)[nH]2)cc2cn(C)nc12 [Compound 239] | > 10000 nM | > 10000 nM | > 10000 nM | > 10000 nM | > 10000 nM | 1000 to 10000 nM | > 10000 nM | 1000 to 10000 nM
Cc1cn2cc(-c3ccc4c(=O)n(C5CCNC(C)C5)cnc4c3)cc(F)c2n1 (stereo not shown) [Compound 323] | 100 to 1000 nM | 100 to 1000 nM | 100 to 1000 nM | 100 to 1000 nM | 100 to 1000 nM | 100 to 1000 nM | 100 to 1000 nM | < 100 nM
Cc1cn2nc(-c3ccc4c(c3)CCN(C3CCNC(C)C3)C4=O)cc(C)c2n1 (stereo not shown) [Compound 327] | 1000 to 10000 nM | 1000 to 10000 nM | 1000 to 10000 nM | 1000 to 10000 nM | 1000 to 10000 nM | 1000 to 10000 nM | 1000 to 10000 nM | 1000 to 10000 nM
Cc1cn2cc(-c3cc(F)c4c(=O)n(C5CCNC6(CC6)C5)ccc4c3)cc(F)c2n1 (stereo not shown) [Compound 471, 2-{4-azaspiro[2.5]octan-7-yl}-8-fluoro-6-{8-fluoro-2-methylimidazo[1,2-a]pyridin-6-yl}isoquinolin-1-one] | > 10000 nM | > 10000 nM | > 10000 nM | > 10000 nM | > 10000 nM | > 10000 nM | > 10000 nM | 100 to 1000 nM
CNCCn1ncc2cc(-c3cc(C)c4nc(C)cn4n3)ccc2c1=O [Compound 472] | 100 to 1000 nM | 100 to 1000 nM | 100 to 1000 nM | 100 to 1000 nM | 100 to 1000 nM | 100 to 1000 nM | 100 to 1000 nM | < 100 nM
Cc1cn2cc(-c3cc(F)c4c(=O)n([C@H]5CC[C@H](N(C)C)CC5)ccc4c3)cc(F)c2n1 [Compound 654] | < 100 nM | < 100 nM | < 100 nM | 100 to 1000 nM | < 100 nM | < 100 nM | < 100 nM | < 100 nM
